Test [1] concerns the target T1, MAGL (Homo sapiens, UniProt Q99685).
T1 construct: Proteomes (human prefrontal cortex or cell membrane fractions); from tissue
T1 sequence (Q99685 1-303): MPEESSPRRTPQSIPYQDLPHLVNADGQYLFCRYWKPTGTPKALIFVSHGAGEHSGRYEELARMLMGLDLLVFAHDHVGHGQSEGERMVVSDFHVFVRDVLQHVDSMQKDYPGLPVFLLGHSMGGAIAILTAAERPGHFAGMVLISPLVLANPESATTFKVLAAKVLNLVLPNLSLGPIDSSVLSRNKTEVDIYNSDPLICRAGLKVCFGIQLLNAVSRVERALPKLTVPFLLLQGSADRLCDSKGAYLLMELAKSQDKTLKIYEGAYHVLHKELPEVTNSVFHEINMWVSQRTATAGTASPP
Description: In vitro competitive activity-based protein profiling (gel-based, FP-Rh or HT-01 probe). The format is biochemical. An outline of the steps: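 Human prefrontal cortex or cell membrane proteomes (1.0 mg/mL protein) preincubated with varying inhibitor concentrations 30 min at 37° C. FP-Rh or HT-01 probe (1.0 μL of 50 μM stock) then added for 30 min at room temperature; reactions quenched with SDS loading buffer and resolved by SDS-PAGE.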

In test [2] the target is T2, MAGL (Mus musculus, UniProt O35678).
T2 construct: from tissue; host or cells: brain of wild-type C57Bl/6J mice
T2 sequence (O35678 1-303): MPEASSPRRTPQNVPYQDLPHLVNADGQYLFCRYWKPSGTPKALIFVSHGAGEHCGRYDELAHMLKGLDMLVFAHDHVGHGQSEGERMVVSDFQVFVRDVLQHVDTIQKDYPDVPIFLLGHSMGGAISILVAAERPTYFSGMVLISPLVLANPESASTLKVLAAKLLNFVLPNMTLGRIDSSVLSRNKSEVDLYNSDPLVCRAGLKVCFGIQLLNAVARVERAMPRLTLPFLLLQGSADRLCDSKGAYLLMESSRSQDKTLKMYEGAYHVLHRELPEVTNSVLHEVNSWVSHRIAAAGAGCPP
In words: Mouse brain proteomes from inhibitor treated mice (oral gavage, brain proteomes analyzed 4 h after administration). It counts as in vivo, mouse (C57Bl/6J). Conditions: brain proteome 4 h after administration, read-out: % Inh 5 mg/kg MGLL (Mouse). The procedure: Compounds are tested to assess their MAGL and serine hydrolase activity using the following in vitro and in vivo assays.
Preparation of Mouse Brain Proteomes from Inhibitor Treated Mice.
Inhibitors were administered to wild-type C57Bl/6J by oral gavage in a vehicle of polyethylene glycol. Each animal was sacrificed 4 h following administration and brain proteomes were prepared and analyzed according to previously established methods (See Niphakis, M. J., et al. (2011) ACS Chem. Neurosci. and Long, J. Z., et al. Nat. Chem. Biol. 5:37-44).

Another test deals with T3, ABHD6 (Mus musculus, UniProt Q8R2Y0).
T3 construct: Brain; from tissue; host or cells: mouse brain proteome
T3 sequence (Q8R2Y0 1-336): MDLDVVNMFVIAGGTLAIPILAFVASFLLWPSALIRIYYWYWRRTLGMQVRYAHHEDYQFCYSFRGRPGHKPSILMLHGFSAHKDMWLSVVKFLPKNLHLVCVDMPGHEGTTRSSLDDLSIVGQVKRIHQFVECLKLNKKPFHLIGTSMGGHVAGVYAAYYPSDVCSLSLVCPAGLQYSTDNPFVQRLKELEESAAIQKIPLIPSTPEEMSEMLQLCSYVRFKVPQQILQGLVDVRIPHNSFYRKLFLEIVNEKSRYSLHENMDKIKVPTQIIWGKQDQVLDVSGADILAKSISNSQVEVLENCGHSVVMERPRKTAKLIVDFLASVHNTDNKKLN
Description: In vitro competitive activity-based protein profiling, mouse brain proteome, ABHD6. The format is biochemical. Conditions: for % Inh ABHD6 Brain (Mouse, μM): mouse brain proteome; for IC50: mouse. The procedure:
[Worded in the source for another target; this target is reported under the same test.] (§1) Proteomes (human prefrontal cortex or cell membrane fractions) (50 μL, 1.0 mg/mL total protein concentration) were preincubated with varying concentrations of inhibitors at 37° C. After 30 min, FP—Rh or HT-01 (1.0 μL, 50 μM in DMSO) was added and the mixture was incubated for another 30 min at room temperature. Reactions were quenched with SDS loading buffer (15 μL-4×) and run on SDS-PAGE.

The target in another test is T4, MGLL (Mus musculus, UniProt O35678).
T4 construct: Brain; from tissue; host or cells: mouse brain proteome
T4 sequence (O35678 1-303): T2 sequence (O35678 1-303)
Description: In vitro competitive activity-based protein profiling, mouse brain proteome. It counts as biochemical. The procedure:
[Worded in the source for another species; this species is reported under the same test.] as §1

The mark [3] stands for this setting: PC3 proteome, read-out: IC50 MGLL PC3 (Human).
[4] abbreviates: PFC (prefrontal cortex) proteome.
Where [5] appears, read: PFC (prefrontal cortex) proteome, read-out: IC50 MGLL PFC (Human).

Read-outs that look alike come from different tables or passages of the source.

As usually defined, the IC50 is the concentration at which inhibition is half-maximal.

For the compound `CC(C)(C#Cc1c(Cl)cccc1CN1CCCC12CCN(C(=O)OC(C(F)(F)F)C(F)(F)F)CC2)C(=O)O` [Example 1, 4-(2-Chloro-6-((8-(((1,1,1,3,3,3-hexafluoropropan-2-yl)oxy)carbonyl)-1,8-diazaspiro[4.5]decan-1-yl)methyl)phenyl)-2,2-dimethylbut-3-ynoic acid], the half-maximal inhibitory concentration (IC50) at MAGL [1] (setting [3]) was < 100 nM. The “% Inh MGLL PFC (Human, μM)” value on MAGL [1] (setting [4]) is given as “### (### is ≥ 75%)”. In addition, the inhibition at 5 mg/kg at MAGL [2] is 25 to 75%.
In the case of `O=C(OC(C(F)(F)F)C(F)(F)F)N1CCC2(CCCN2Cc2cc(F)cc(C3(C(=O)O)CCCC3)c2)CC1` [Example 4, 1-(3-Fluoro-5-((8-(((1,1,1,3,3,3-hexafluoropropan-2-yl)oxy)carbonyl)-1,8-diazaspiro[4.5]decan-1-yl)methyl)phenyl)cyclopentane-1-carboxylic acid], at MAGL [1] (setting [3]), the 50% inhibitory concentration (IC50) was < 100 nM. The “% Inh MGLL PFC (Human, μM)” value at MAGL [1] (setting [4]) was “### (### is ≥ 75%)”. Also, the inhibition at 5 mg/kg at MAGL [2] is ≥ 75%.
Take `CC(C)(C#Cc1cc(C(F)(F)F)ccc1CN1CCCC12CCN(C(=O)OC(C(F)(F)F)C(F)(F)F)CC2)C(=O)O` [Example 5, 4-(2-((8-(((1,1,1,3,3,3-Hexafluoropropan-2-yl)oxy)carbonyl)-1,8-diazaspiro[4.5]decan-1-yl)methyl)-5-(trifluoromethyl)phenyl)-2,2-dimethylbut-3-ynoic acid]: the 50% inhibitory concentration (IC50) on MAGL [1] (setting [3]) is < 100 nM. Further, the inhibition at 5 mg/kg at MAGL [2] was ≥ 75%.
As to `O=C(O)CN1CC2CC1CN2c1cc(C(F)(F)F)ccc1CN1CCCC12CCN(C(=O)OC(C(F)(F)F)C(F)(F)F)CC2` (stereo not drawn) [Example 6, 2-(5-(2-((8-(((1,1,1,3,3,3-hexafluoropropan-2-yl)oxy)carbonyl)-1,8-diazaspiro[4.5]decan-1-yl)methyl)-5-(trifluoromethyl)phenyl)-2,5-diazabicyclo[2.2.1]heptan-2-yl)acetic acid], the IC50 at MAGL [1] (setting [3]) and at MAGL [1] (setting [5]) was < 100 nM in each case. In addition, on MAGL [1] (setting [4]), the “% Inh MGLL PFC (Human, μM)” value was “### (### is ≥ 75%)”. Also, the “% Inh ABHD6 Brain (Mouse, μM)” value on ABHD6 is “# (# is ≤ 25%)”. The “% Inh MGLL Brain (Mouse, μM)” value on MGLL is listed as “### (### is ≥ 75%)”.
`O=C(OC(C(F)(F)F)C(F)(F)F)N1CCC2(CCCN2Cc2ccc(C(F)(F)F)cc2C2(C(=O)O)CCCC2)CC1` [Example 7, 1-(2-((8-(((1,1,1,3,3,3-hexafluoropropan-2-yl)oxy)carbonyl)-1,8-diazaspiro[4.5]decan-1-yl)methyl)-5-(trifluoromethyl)phenyl)cyclopentane-1-carboxylic acid]: the IC50 at MAGL [1] (setting [3]) is < 100 nM. Further, the inhibition at 5 mg/kg at MAGL [2] was ≥ 75%.
Take `CN(Cc1cccc(Cl)c1C1(C(=O)O)CCCC1)C1(C)CCN(C(=O)OC(C(F)(F)F)C(F)(F)F)CC1` [Example 9, 1-(2-Chloro-6-(((1-(((1,1,1,3,3,3-hexafluoropropan-2-yl)oxy)carbonyl)-4-methylpiperidin-4-yl)(methyl)amino)methyl)phenyl)cyclopentane-1-carboxylic acid]: at MAGL [1] (setting [3]), the IC50 is < 100 nM. In addition, at MAGL [1] (setting [4]), the “% Inh MGLL PFC (Human, μM)” value was “### (### is ≥ 75%)”. In addition, the inhibition at 5 mg/kg on MAGL [2] is ≤ 25%.
As for `O=C(O)C1CCN(Cc2cc(C(F)(F)F)ccc2C(=O)N2CCCC23CCN(C(=O)OC(C(F)(F)F)C(F)(F)F)CC3)CC1` [Example 10, 1-(2-(8-(((1,1,1,3,3,3-Hexafluoropropan-2-yl)oxy)carbonyl)-1,8-diazaspiro[4.5]decane-1-carbonyl)-5-(trifluoromethyl)benzyl)piperidine-4-carboxylic acid], on MAGL [1] (setting [4]), the “% Inh MGLL PFC (Human, μM)” value is “### (### is ≥ 75%)”. The inhibition at 5 mg/kg on MAGL [2] was ≥ 75%.
As to `CN(Cc1ccc(C(F)(F)F)cc1N1CCC(C(=O)O)CC1)C1(C)CCN(C(=O)OC(C(F)(F)F)C(F)(F)F)CC1` [Example 14, 1-(2-(((1-(((1,1,1,3,3,3-Hexafluoropropan-2-yl)oxy)carbonyl)-4-methylpiperidin-4-yl)(methyl)amino)methyl)-5-(trifluoromethyl)phenyl)piperidine-4-carboxylic acid], on MAGL [1] (setting [3]), the IC50 is < 100 nM. Also, at MAGL [2], the inhibition at 5 mg/kg is ≥ 75%.
Take `CN(Cc1cc(N2CCCC2)cc(C(F)(F)F)c1)C1(C)CCN(C(=O)OC(C(F)(F)F)C(F)(F)F)CC1` [Example 76, 1,1,1,3,3,3-Hexafluoropropan-2-yl 4-methyl-4-(methyl(3-(pyrrolidin-1-yl)-5-(trifluoromethyl)benzyl)amino) piperidine-1-carboxylate]: the results for the half-maximal inhibitory concentration (IC50) at MAGL [1] (setting [5]), at ABHD6 and at MGLL were < 100 nM, > 1000 nM and 100 to 1000 nM, respectively.
As to `CC1(C(=O)O)CCCN(c2cc(C(F)(F)F)ccc2CN2CC3(CCN(C(=O)OC(C(F)(F)F)C(F)(F)F)CC3)C2)C1` (stereo not drawn) [Example 112, 1-(2-((7-(((1,1,1,3,3,3-Hexafluoropropan-2-yl)oxy)carbonyl)-2,7-diazaspiro[3.5]nonan-2-yl)methyl)-5-(trifluoromethyl)phenyl)-3-methylpiperidine-3-carboxylic acid], on MAGL [1] (setting [3]), the IC50 was < 100 nM. The inhibition at 5 mg/kg on MAGL [2] was ≤ 25%.
Consider `CC1(C(=O)O)CCCN(c2cc(CN3CC4(CCN(C(=O)OC(C(F)(F)F)C(F)(F)F)CC4)C3)cc(C(F)(F)F)c2)C1` (stereo not drawn) [Example 114, 1-(3-((7-(((1,1,1,3,3,3-Hexafluoropropan-2-yl)oxy)carbonyl)-2,7-diazaspiro[3.5]nonan-2-yl)methyl)-5-(trifluoromethyl)phenyl)-3-methylpiperidine-3-carboxylic acid], for which the concentration for half-maximal inhibition (IC50) at MAGL [1] (setting [3]) and on MAGL [1] (setting [5]) was < 100 nM in each case. In addition, the inhibition at 5 mg/kg at MAGL [2] was 25 to 75%.
For the compound `O=C(O)CN1CC2CC1CN2c1cc(CN2CC3(CCN(C(=O)OC(C(F)(F)F)C(F)(F)F)CC3)C2)cc(C(F)(F)F)c1` (stereo not drawn) [Example 129, 2-(5-{3-[(7-{[(1,1,1,3,3,3-Hexafluoropropan-2-yl)oxy]carbonyl}-2,7-diazaspiro[3.5]nonan-2-yl)methyl]-5-(trifluoromethyl)phenyl}-2,5-diazabicyclo[2.2.1]heptan-2-yl)acetic acid], on MAGL [2], the inhibition at 5 mg/kg was ≤ 25%.
For `O=C(O)[C@@H]1CCCN1C1CCN(c2cc(C(F)(F)F)ccc2CN2CCCC23CCN(C(=O)OC(C(F)(F)F)C(F)(F)F)CC3)CC1` [Example 164, (1-(2-((8-(((1,1,1,3,3,3-Hexafluoropropan-2-yl)oxy)carbonyl)-1,8-diazaspiro[4.5]decan-1-yl)methyl)-5-(trifluoromethyl)phenyl)piperidin-4-yl)-L-proline], the “% Inh MGLL PC3 (Human, μM)” value on MAGL [1] (PC3 proteome) is “### (### is ≥ 75%)”. Besides, at ABHD6, the “% Inh ABHD6 Brain (Mouse, μM)” value is on record as “# (# is ≤ 25%)”. Also, on MGLL, the “% Inh MGLL Brain (Mouse, μM)” value is listed as “### (### is ≥ 75%)”.
Turning to `O=C(O)C1CCN(c2cc(Cl)ccc2CN2CCC3(CC2)CCN(C(=O)OC(C(F)(F)F)C(F)(F)F)C3)CC1` [Example 194, 1-(5-Chloro-2-((2-(((1,1,1,3,3,3-hexafluoropropan-2-yl)oxy)carbonyl)-2,8-diazaspiro[4.5]decan-8-yl)methyl)phenyl) piperidine-4-carboxylic acid], the IC50 was < 100 nM on MAGL [1] (setting [3]), < 100 nM on MAGL [1] (setting [5]), > 1000 nM at ABHD6 and 100 to 1000 nM at MGLL.
Turning to `O=C(O)C1CCN(c2cc(C(F)(F)F)ccc2CN2CCC3(CC2)CCN(C(=O)OC(C(F)(F)F)C(F)(F)F)C3)CC1` [Example 195, 1-(2-((2-(((1,1,1,3,3,3-Hexafluoropropan-2-yl)oxy)carbonyl)-2,8-diazaspiro[4.5]decan-8-yl)methyl)-5-(trifluoromethyl)phenyl)piperidine-4-carboxylic acid], the IC50 on MAGL [1] (setting [3]) is < 100 nM; on MAGL [1] (setting [5]), 100 to 1000 nM; at ABHD6, > 1000 nM; at MGLL, 100 to 1000 nM.

(Values after patent US20210214375A1 (LUNDBECK LA JOLLA RESEARCH CENTER, INC., priority 2017, published 2021).)
